For one experiment, the target named is GIV:Gαi3 interaction (Homo sapiens, UniProt P08754). The experiment is described as follows: fluorescence polarization (FP) assay monitoring the GIV:Gαi3 interaction, dose response curves. The conditions noted are these: FIG. 11D. It is filed as binding. How it is done: (§1) FIGS. 11A-11E. A HTS-compatible fluorescence polarization (FP) assay to monitor the GIV:Gαi3 interaction.
(§2) FIG. 14. Kd's determined from fluorescence polarization assays with FITC peptides and hGαi3.
(§3) A pilot screen of the LOPAC1280 library (collection of known bioactive compounds) was conducted and identified lead compounds with inhibitory activity (FIG. 11A). A virtual ligand screen (VLS) of the same library (LOPAC1280) was conducted using in silico docking methods (FIG. 11B). The results from both screens were compared. […] From the virtual screen 7 ‘hits’ (FIG. 11B) were identified. Importantly, 2 of the virtual screen hits matched the results from the FP assay and a third was validated as a GIV:Gαi inhibitor. Compounds were validated by dose response curves (FIG. 11D). […] None of the other 4 hits predicted by the VLS inhibited binding.
(In general: Fluorescence polarisation rises when a labelled molecule tumbles more slowly, as on binding a larger partner.)

The target in a further experiment is GIV:Gαi (Homo sapiens, UniProt P08754). The experiment is described as follows: GST-pulldown assay confirming hits. It is filed as binding. As to conditions: FIG. 11E. As to the method: as §3
The target of experiment [1] is GIV:Gαi3 (hGαi3 with FITC-labelled GIV C-terminal peptide KTGSPGSEVVTLQQFLEESNKLTSVQIKSSS, SEQ ID NO: 1) (Homo sapiens, UniProt P08754). The experiment is described as follows: Inhibition of GIV:Gαi3 interaction by fluorescence polarization (FITC-GIV peptide binding to hGαi3); confirmed hits, FIG. 10.
Description: FIG. 10. Further analysis of confirmed hits validate the assay to identify inhibitors of the target.
as §1, §2
The present invention provides a research tool assay for identifying a specific modulator of GNAI, comprising: (a) combining a drug candidate with GNAI and a C-terminal GIV peptide and determining if the drug candidate inhibits GNAI interaction with the C-terminal GIV peptide; and (b) combining the drug candidate with GNAI and a DAPLE peptide and determining if the drug candidate inhibits GNAI interaction with DAPLE peptide.
In embodiments, the C-terminal GIV peptide comprises the amino acid sequence of SEQ ID NO: 1. In embodiments, the DAPLE peptide comprises the amino acid sequence of SEQ ID NO:2.
In embodiments, the determining steps are detected by fluorescent polarization.
In embodiments, the invention provides an assay and method for screening for drug candidates which act as specific inhibitors against the GNAI:GIV interface. […]
As for the first step in the assay, this small region of 31 aa GIV peptide: […] (SEQ ID NO: 1) was arrived at after careful biochemistry determined that anything less than this is less efficient in binding or activation the G protein, GNAI. […]

Structures are written as SMILES.

GIV:Gαi3 interaction, sequence (P08754 whole entry): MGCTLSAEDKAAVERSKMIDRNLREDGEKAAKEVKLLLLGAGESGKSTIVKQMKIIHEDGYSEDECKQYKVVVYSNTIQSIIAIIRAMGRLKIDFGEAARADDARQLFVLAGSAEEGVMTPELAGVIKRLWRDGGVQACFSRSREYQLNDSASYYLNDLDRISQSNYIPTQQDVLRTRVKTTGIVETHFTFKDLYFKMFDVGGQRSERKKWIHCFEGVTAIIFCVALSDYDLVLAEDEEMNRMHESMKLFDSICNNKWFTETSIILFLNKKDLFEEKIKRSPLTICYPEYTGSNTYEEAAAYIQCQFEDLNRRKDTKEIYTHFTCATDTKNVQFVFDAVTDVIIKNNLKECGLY
GIV:Gαi, sequence (P08754 whole entry): as above
UniProt P08754, sequence (P08754 whole entry): as above

Usually IC50 stands for the point on the concentration scale where inhibition reaches its midpoint. Read a low IC50 as greater potency in that assay. Regarding `Cc1ccc(C(=O)Nc2ccc(S(=O)(=O)O)c3cc(S(=O)(=O)O)cc(S(=O)(=O)O)c23)cc1NC(=O)c1cccc(NC(=O)Nc2cccc(C(=O)Nc3cc(C(=O)Nc4ccc(S(=O)(=O)O)c5cc(S(=O)(=O)O)cc(S(=O)(=O)O)c45)ccc3C)c2)c1` [suramin], the IC50 against GIV:Gαi3 interaction is about 805 µM. Consider `CC[C@@]1(O)C(=O)OCc2c1cc1n(c2=O)Cc2cc3c(CN(C)C)c(O)ccc3nc2-1` [topotecan], for which, at GIV:Gαi, the “confirmation as hit by GST-pulldown” value is “false positive”. For the molecule `O=C(O)C1=CC(=C(c2ccc(O)c(C(=O)O)c2)c2ccc(O)c(C(=O)O)c2)C=CC1=O` [ATA, aurintricarboxylic acid], at GIV:Gαi3 interaction, the IC50 was about 5 µM. Regarding `O=C(Nc1cccc(C(=O)Nc2ccc(S(=O)(=O)[O-])c3cc(S(=O)(=O)[O-])cc(S(=O)(=O)[O-])c23)c1)Nc1cccc(C(=O)Nc2ccc(S(=O)(=O)[O-])c3cc(S(=O)(=O)[O-])cc(S(=O)(=O)[O-])c23)c1.[Na+].[Na+].[Na+].[Na+].[Na+].[Na+]` [NF023, 8,8′-[carbonylbis(imino-3,1-phenylenecarbonylimino)]bis(1,3,5-naphthalene-trisulfonic acid) hexasodium salt], at GIV:Gαi, the “confirmation as hit by GST-pulldown” value is “true hits”. The IC50 on GIV:Gαi3 interaction was about 5 µM. Broadly, the Ki is a dissociation constant, usually derived from enzyme kinetics or from competition with a known ligand. `Cc1ccc(C(=O)Nc2ccc(S(=O)(=O)O)c3cc(S(=O)(=O)O)cc(S(=O)(=O)O)c23)cc1NC(=O)c1cccc(NC(=O)Nc2cccc(C(=O)Nc3cc(C(=O)Nc4ccc(S(=O)(=O)O)c5cc(S(=O)(=O)O)cc(S(=O)(=O)O)c45)ccc3C)c2)c1` [Suramin, suramin] showed a Ki in experiment [1] of 49 µM.

These data come from US11366121B2, “Specific GNAI:GIV interaction screening assays, methods and compositions” (The Regents of the University of California, priority 2017, dated 2022).
